Test results taken from patent US20080146559A1, “4,5,6,7-Tetrahydro-Thieno [2,3-C] Pyridine Derivatives” (priority 2006, published 2008).

Target: T1, human H3R (Homo sapiens, UniProt Q9Y5N1)
T1 construct: expressed in transfected cells; host or cells: CHO cells (membranes)
Experiment: Binding assay with 3H-(R)α-methylhistamine (competition binding)
Settings: membrane of the human H3R-CHO cell line, 3H(R)α-methylhistamine 1 nM, Ki calculated from IC50 by Cheng-Prusoff
Description: Binding assay with ^3H—(R)α-methylhistamine
Saturation binding experiments were performed using HR3-CHO membranes prepared as described in Takahashi, K, Tokita, S., Kotani, H. (2003) J. Pharmacol. Exp. Therapeutics 307, 213-218.
An appropriate amount of membrane (60 to 80 μg protein/well) was incubated with increasing concentrations of ^3H(R)α-Methylhistamine di-hydrochloride (0.10 to 10 nM). Non specific binding was determined using a 200 fold excess of cold (R)α-Methylhistamine dihydrobromide (500 nM final concentration). The incubation was carried out at room temperature (in deep-well plates shaking for three hours). The final volume in each well was 250 μl. The incubation was followed by rapid filtration on GF/B filters (pre-soaked with 100 μl of 0.5% PEI in Tris 50 mM shaking at 200 rpm for two hours). The filtration was made using a cell-harvester and the filter plates were then washed five times with ice cold washing buffer containing 0.5 M NaCl. After harvesting, the plates were dried at 55° C. for 60 min, then we added scintillation fluid (Microscint 40, 40 microl in each well) and the amount of radioactivity on the filter was determined in Packard top-counter after shaking the plates for two hours at 200 rpm at room temperature.
Binding Buffer: 50 mM Tris-HCl pH 7.4 and 5 mM MgCl2×6H2O pH 7.4. Washing Buffer: 50 mM Tris-HCl pH 7.4 and 5 mM MgCl2×6H2O and 0.5 M NaCl pH 7.4. Indirect measurement of affinity of H3R inverse agonists: twelve increasing concentrations (ranging from 10 μM to 0.3 nM) of the selected compounds were always tested in competition binding experiments using membrane of the human H3R—CHO cell line. An appropriate amount of protein, e.g. approximately 500 cpm binding of RAMH at Kd, were incubated for 1 hour at room temperature in 250 μl final volume in 96-well plates in presence of ^3H(R)α-methylhistamine (1 nM final concentration=Kd). Non-specific binding was determined using a 200 fold excess of cold (R)α-methylhistamine dihydrobromide.
All compounds were tested at a single concentration in duplicate. […] The concentration at which 50% inhibition of the radioligand ^3H(R)α-methylhistamine is obtained (the IC50) is determined from the linear regression of a plot of the logarithm of the concentration versus percent inhibition measured for the different concentrations. Ki's were calculated from IC50 based on Cheng-Prusoff equation (Cheng, Y, Prusoff, W H (1973) Biochem Pharmacol 22, 3099-3108): Ki=IC50/[1+D/Kd] wherein D is the concentration of the radioligand and Kd is the binding constant for the radioligand binding to the receptor under the conditions used in the competition experiment.

T1 sequence (Q9Y5N1 whole entry): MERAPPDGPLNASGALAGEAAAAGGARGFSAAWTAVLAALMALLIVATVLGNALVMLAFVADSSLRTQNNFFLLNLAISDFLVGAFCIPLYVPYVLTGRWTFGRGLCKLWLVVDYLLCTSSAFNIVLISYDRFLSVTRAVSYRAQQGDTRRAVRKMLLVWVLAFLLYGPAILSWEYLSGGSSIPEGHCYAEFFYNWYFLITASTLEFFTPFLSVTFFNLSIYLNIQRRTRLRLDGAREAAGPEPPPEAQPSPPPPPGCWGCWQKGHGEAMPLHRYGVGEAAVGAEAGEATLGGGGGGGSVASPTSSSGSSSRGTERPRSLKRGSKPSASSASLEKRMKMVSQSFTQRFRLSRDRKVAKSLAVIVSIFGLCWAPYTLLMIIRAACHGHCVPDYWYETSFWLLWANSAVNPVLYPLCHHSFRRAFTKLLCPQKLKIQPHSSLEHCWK

**Q.** `O=S(=O)(c1ccccc1)N1CCc2cc(OCCCN3CCCC3)sc2C1` [Example 32, 6-benzenesulfonyl-2-(3-pyrrolidin-1-yl-propoxy)-4,5,6,7-tetrahydro-thieno[2,3-c]pyridine] was tested. Which Ki did it give?
**A.** The Ki was 33.6 nM.

**Q.** With `CC(C)(C)CC(=O)N1CCc2cc(OCCCN3CCCC3)sc2C1` [Example 20, 3,3-dimethyl-1-[2-(3-pyrrolidin-1-yl-propoxy)-4,7-dihydro-5H-thieno[2,3-c]pyridin-6-yl]-butan-1-one] as the compound, how does the Ki read?
**A.** The Ki was 40.9 nM.

**Q.** `O=C(c1cccc(F)c1)N1CCc2cc(OCCCN3CCCCC3)sc2C1` [Example 10, (3-fluoro-phenyl)-[2-(3-piperidin-1-yl-propoxy)-4,7-dihydro-5H-thieno[2,3-c]pyridin-6-yl]-methanone] was tested. Which Ki did it give?
**A.** Its Ki is 31.3 nM.

**Q.** For `CC(C)CC(=O)N1CCc2cc(OC3CCN(C(C)C)CC3)sc2C1` [Example 64, 1-[2-(1-isopropyl-piperidin-4-yloxy)-4,7-dihydro-5H-thieno[2,3-c]pyridin-6-yl]-3-methyl-butan-1-one], which Ki is on record?
**A.** The Ki was 13.1 nM.

**Q.** How did the Ki turn out when `CC(C)CN1CCC(Oc2cc3c(s2)CN(C(=O)CC(C)(C)C)CC3)CC1` [Example 44, 1-[2-(1-isobutyl-piperidin-4-yloxy)-4,7-dihydro-5H-thieno[2,3-c]pyridin-6-yl]-3,3-dimethyl-butan-1-one] was run?
**A.** The Ki was 41.7 nM.

**Q.** With `Cc1ccc(S(=O)(=O)N2CCc3cc(OC4CCN(C(C)C)C4)sc3C2)cc1` (stereo not drawn) [Example 94, 2-(1-isopropyl-pyrrolidin-3-yloxy)-6-(toluene-4-sulfonyl)-4,5,6,7-tetrahydro-thieno[2,3-c]pyridine] as the compound, how does the Ki read?
**A.** Its Ki is 64.3 nM.
